# Patent US12252701B2, “Chimeric antigen receptor T cell therapy” (KITE PHARMA, INC., priority 2020, dated 2025)
# Where two headings read alike, the source gives them in different places.
# What was measured:
# [1] = system: NALM6.GFP.LUC.CD19 target cells; assay: Serial killing assay; type: cell-based, human
# Protocol: CD19 CAR-T cells were thawed in RPMI media supplemented with HEPES, Penicillin/Streptomycin/L-Glutamine and 10% FBS and rested overnight. The following day, drugs were serially diluted and prepared in 96-well plates. Rested T cells were counted and normalized so that 25,000 or 8,333 T cells were plated with 25,000 NALM6.GFP.LUC.CD19 target cells (1:1 or 1:3 Effector:Target ratio) in the prepared 96-well plates. At 16 hour post-incubation and every 3-4 days, T cell killing of targets was measured via luciferase detection. D-luciferin substrate was added to the co-culture wells at a final concentration of 0.14 mg/mL and plates were incubated at 37° C. in the dark for 10 minutes. Luminescent signal was read immediately after in a VarioSkan™ LUX microplate reader. T cell-mediated cytotoxicity was calculated as follows: % Cytotoxicity=[1−luciferase signal of (sample of interest/target alone control)]*100. Afterwards, co-cultures were stained with LIVE/DEAD and antibodies against CD4, CD8 and KIP-1 and then washed. Cells were then analyzed and quantified via the Attune NxT flow cytometer. T cells were then repeatedly stimulated with fresh 25,000 target cells, and this process was repeated every 3-4 days.
# [2] = system: CAR-T cells; assay: CAR-T cell expansion assay (KIP-1 or CD3/CD28 stimulation); settings: for % viability: CD3/CD28
# [3] = system: phospho-STAT-1, -3 and -5 in CD4, CD8 T cells and monocytes (CAR T product, PBMCs); assay: Intracellular phospho-STAT-1, -3, -5 by flow cytometry in immune cell subsets of CAR T product and PBMCs; type: cell-based, human; settings: for pSTAT-5 inhibition: GM-CSF stimulated PBMC
# Protocol: Further experiments were performed to look at impacts of JAK inhibitors on STAT phosphorylation in various immune cell subsets.
# [4] = cited from earlier work
# [5] = system: NALM6.GFP.LUC.CD19 target cells; assay: Serial killing assay of CAR-T, percent cytotoxicity by luciferase detection; settings: in vitro at clinically relevant dose levels
# Protocol: The percent cytotoxicity to NALM6.GFP.LUC.CD19 target cells was measured by luciferase detection at each round.
# In one embodiment, a serial killing assay is a combination of cell killing and how long it takes for CAR T cells to get exhausted under repeated stimulation. In one embodiment, a serial killing assay is a surrogate measure for CAR T cell persistence in vivo.
# [6] = system: CD19 CAR T cells; assay: CAR T cell cytokine production (Luminex) under CD19 K562, KIP-1 or CD2/3/28 stimulation; settings: for IC50: Homo sapiens, T-cell
# [7] = E:T ratio 1:3, all doses tested
smiles,measurement,setting,value
O=C(Nc1nc2cccc(-c3ccc(CN4CCS(=O)(=O)CC4)cc3)n2n1)C1CC1 [filgotinib],T-cell counts,[1]; E:T ratio 1:1,increased T-cell counts in a dose-dependent manner
same,serial killing,[1]; E:T ratio 1:1,enhanced serial killing
same,T-cell counts,[1]; [7],no negative impacts were observed
same,serial killing,[1]; [7],no negative impacts
same,% viability,"[2]; dose 500 nM, day 4",58.7%
same,% viability,"[2]; dose 500 nM, day 8",65.7%
same,% viability,"[2]; dose 500 nM, day 12",84.5%
same,% viability,"[2]; dose 1000 nM, day 4",73.1%
same,% viability,"[2]; dose 1000 nM, day 8",70.9%
same,% viability,"[2]; dose 1000 nM, day 12",81.6%
same,effect on T cell expansion,[2]; at the doses tested (Table 40),little to no effect
same,"inhibitory activity of each p-STAT, CD4 versus CD8 T cells",[3]; CAR T product,stronger inhibitory activity (magnitudes) of each p-STAT in CD4 T cells compared to CD8 T cells
same,Primary Cell IL-6 pSTAT1 signaling (% inhibition),[3]; CD4 CART cells,45%
same,Primary Cell IL-6 pSTAT3 signaling (% inhibition),[3]; CD4 CART cells,50%
same,Primary Cell IL-6 pSTAT5 signaling (% inhibition),[3]; CD4 CART cells,59%
same,Primary Cell IL-6 pSTAT1 signaling (% inhibition),[3]; CD8 CART cells,17%
same,Primary Cell IL-6 pSTAT3 signaling (% inhibition),[3]; CD8 CART cells,38%
same,Primary Cell IL-6 pSTAT5 signaling (% inhibition),[3]; CD8 CART cells,50%
same,pSTAT-5 inhibition,[3]; CD3+ T cells,40%
same,pSTAT-5 inhibition,[3]; CD14+ monocytes,28%
same,"effect on phosphorylated-STAT-1, -STAT-3 and -STAT5 levels",[3]; IL-6 stimulation,"reduction of phosphorylated-STAT-1, -STAT-3 and -STAT5 levels"
same,"Primary cell GM-CSF-pSTAT5, inhibition",[3]; Monocytes within bulk PBMCs,28%
same,Primary Cell IL-6 pSTAT1 signaling (% inhibition),[3]; PBMC CD4 T cells,67%
same,Primary Cell IL-6 pSTAT3 signaling (% inhibition),[3]; PBMC CD4 T cells,52%
same,Primary Cell IL-6 pSTAT5 signaling (% inhibition),[3]; PBMC CD4 T cells,83%
same,Primary Cell IL-6 pSTAT1 signaling (% inhibition),[3]; PBMC CD8 T cells,26%
same,Primary Cell IL-6 pSTAT3 signaling (% inhibition),[3]; PBMC CD8 T cells,37%
same,Primary Cell IL-6 pSTAT5 signaling (% inhibition),[3]; PBMC CD8 T cells,49%
same,Primary Cell IL-6 pSTAT1 signaling (% inhibition),[3]; PBMC Monocytes,50%
same,Primary Cell IL-6 pSTAT3 signaling (% inhibition),[3]; PBMC Monocytes,74%
same,Primary Cell IL-6 pSTAT5 signaling (% inhibition),[3]; PBMC Monocytes,34%
same,"inhibitory activity of each p-STAT, CD4 versus CD8 T cells",[3]; T cells from PBMCs,stronger inhibitory activity (magnitudes) of each p-STAT in CD4 T cells compared to CD8 T cells
same,"Primary cell GM-CSF-pSTAT5, inhibition",[3]; T cells within bulk PBMCs,40%
same,Cmax,"[4]; clinical dosing, patient sera, repeat dose studies",1200 ng/mL
same,Protein binding,"[4]; plasma protein binding, reported",~42%
same,"effect on CAR T cells in cell killing, serial killing and T cell expansion assays",[5],not accompanied by a detrimental effect on CAR T cells
same,suppression of cytokine production from CAR T cells (breadth and magnitude),[6],less effective in the breadth of cytokines suppressed and its potency to suppress particular cytokines
same,"Suppression of cytokine production, GMCSF (IC50)","[6]; CD3/CD28 stimulation, 72 h",Suppress
same,IC50,"[6]; 72 h, read-out: Suppression of cytokine production, GMCSF (IC50), K562-CD19 stimulation, 72 h",> 10000 nM
same,IC50,"[6]; 72 h, read-out: Suppression of cytokine production, GMCSF (IC50), KIP-1 stimulation, 72 h",6440 nM
same,IC50,"[6]; 72 h, read-out: Suppression of cytokine production, GzB (IC50), CD3/CD28 stimulation, 72 h",7650 nM
same,IC50,"[6]; 72 h, read-out: Suppression of cytokine production, GzB (IC50), K562-CD19 stimulation, 72 h",> 10000 nM
same,IC50,"[6]; 72 h, read-out: Suppression of cytokine production, GzB (IC50), KIP-1 stimulation, 72 h",> 10000 nM
same,IC50,"[6]; 72 h, read-out: Suppression of cytokine production, IFNg (IC50), CD3/CD28 stimulation, 72 h",> 10000 nM
same,IC50,"[6]; 72 h, read-out: Suppression of cytokine production, IFNg (IC50), K562-CD19 stimulation, 72 h",> 10000 nM
same,IC50,"[6]; 72 h, read-out: Suppression of cytokine production, IFNg (IC50), KIP-1 stimulation, 72 h",> 10000 nM
same,IC50,"[6]; 72 h, read-out: Suppression of cytokine production, IL-2Ra (IC50), CD3/CD28 stimulation, 72 h",1890 nM
same,IC50,"[6]; 72 h, read-out: Suppression of cytokine production, IL-2Ra (IC50), K562-CD19 stimulation, 72 h",4820 nM
same,IC50,"[6]; 72 h, read-out: Suppression of cytokine production, IL-2Ra (IC50), KIP-1 stimulation, 72 h",277 nM
same,IC50,"[6]; 72 h, read-out: Suppression of cytokine production, IL-6 (IC50), CD3/CD28 stimulation, 72 h",1710 nM
same,IC50,"[6]; 72 h, read-out: Suppression of cytokine production, IL-6 (IC50), KIP-1 stimulation, 72 h",716 nM
same,IC50,"[6]; 72 h, read-out: Suppression of cytokine production, IL-8 (IC50), CD3/CD28 stimulation, 72 h",> 10000 nM
same,IC50,"[6]; 72 h, read-out: Suppression of cytokine production, IL-8 (IC50), K562-CD19 stimulation, 72 h",543 nM
same,IC50,"[6]; 72 h, read-out: Suppression of cytokine production, IL-8 (IC50), KIP-1 stimulation, 72 h",564 nM
same,IC50,"[6]; 72 h, read-out: Suppression of cytokine production, IL-10 (IC50), CD3/CD28 stimulation, 72 h",2010 nM
same,IC50,"[6]; 72 h, read-out: Suppression of cytokine production, IL-10 (IC50), K562-CD19 stimulation, 72 h",397 nM
same,IC50,"[6]; 72 h, read-out: Suppression of cytokine production, IL-10 (IC50), KIP-1 stimulation, 72 h",191 nM
same,IC50,"[6]; 72 h, read-out: Suppression of cytokine production, MCP-1 (IC50), CD3/CD28 stimulation, 72 h",563 nM
same,IC50,"[6]; 72 h, read-out: Suppression of cytokine production, MCP-1 (IC50), K562-CD19 stimulation, 72 h",858 nM
same,IC50,"[6]; 72 h, read-out: Suppression of cytokine production, MCP-1 (IC50), KIP-1 stimulation, 72 h",559 nM
same,IC50,"[6]; 72 h, read-out: Suppression of cytokine production, MIG (IC50), CD3/CD28 stimulation, 72 h",> 10000 nM
same,IC50,"[6]; 72 h, read-out: Suppression of cytokine production, MIG (IC50), K562-CD19 stimulation, 72 h",1570 nM
same,IC50,"[6]; 72 h, read-out: Suppression of cytokine production, MIG (IC50), KIP-1 stimulation, 72 h",1380 nM
same,IC50,"[6]; 72 h, read-out: Suppression of cytokine production, MIP-1a (IC50), CD3/CD28 stimulation, 72 h",> 10000 nM
same,IC50,"[6]; 72 h, read-out: Suppression of cytokine production, MIP-1a (IC50), K562-CD19 stimulation, 72 h",> 10000 nM
same,IC50,"[6]; 72 h, read-out: Suppression of cytokine production, MIP-1a (IC50), KIP-1 stimulation, 72 h",> 10000 nM
same,IC50,"[6]; 72 h, read-out: Suppression of cytokine production, MIP-1b (IC50), CD3/CD28 stimulation, 72 h",> 10000 nM
same,IC50,"[6]; 72 h, read-out: Suppression of cytokine production, MIP-1b (IC50), K562-CD19 stimulation, 72 h",9820 nM
same,IC50,"[6]; 72 h, read-out: Suppression of cytokine production, MIP-1b (IC50), KIP-1 stimulation, 72 h",> 10000 nM
same,IC50,"[6]; 72 h, read-out: Suppression of cytokine production, Perforin (IC50), CD3/CD28 stimulation, 72 h",5460 nM
same,IC50,"[6]; 72 h, read-out: Suppression of cytokine production, Perforin (IC50), K562-CD19 stimulation, 72 h",> 10000 nM
same,IC50,"[6]; 72 h, read-out: Suppression of cytokine production, Perforin (IC50), KIP-1 stimulation, 72 h",2110 nM
same,IC50,"[6]; 72 h, read-out: Suppression of cytokine production, TNFa (IC50), CD3/CD28 stimulation, 72 h",793 nM
same,IC50,"[6]; 72 h, read-out: Suppression of cytokine production, TNFa (IC50), K562-CD19 stimulation, 72 h",7230 nM
same,IC50,"[6]; 72 h, read-out: Suppression of cytokine production, TNFa (IC50), KIP-1 stimulation, 72 h",2240 nM
same,"Suppression of cytokine production, IL-6 (IC50)","[6]; K562-CD19 stimulation, 72 h",Suppress
